Read-outs that look alike come from different tables or passages of the source.
Legend:
[1] = Solubility of API in water (vessel cleaning note); format: physicochemical
[2] = cited from earlier work; for participants with psychiatric diagnoses whose symptoms improved following use: uncontrolled setting, self-report
[3] = without coadministration of a monoamine oxidase inhibitor; cited from earlier work
[4] = humans, 0.05 mg/kg to 0.4 mg/kg, bolus injections or infusions; cited from earlier work

CN(C)CCc1c[nH]c2ccccc12.O=C(O)/C=C/C(=O)O [API, N,N-DMT fumarate]
solubility in water [1]: API highly soluble

COc1ccc2[nH]cc(CCN(C)C)c2c1 [Mixture 5-MeO-DMT, 5-methoxy-N,N-dimethyltryptamine]
individuals reporting improvements in their conditions following use ([2]; alcoholism or hazardous drinking, n=75 out of 113): 66%
participants with psychiatric diagnoses whose symptoms improved following use ([2]; anxiety): 69%
participants with psychiatric diagnoses whose symptoms improved following use ([2]; depression): 77%
participants with psychiatric diagnoses whose symptoms improved following use ([2]; post-traumatic stress disorder): 79%
oral bioavailability [3]: not orally bioavailable

CN(C)CCc1c[nH]c2ccccc12 [DMT (SPL026), N,N-dimethyltryptamine]
tolerability [4]: well-tolerated
